Laboratory results from US12005050B2, “Methods for preventing or treating H. pylori infection” (TENNOR THERAPEUTICS (SUZHOU) LIMITED, priority 2022, dated 2024).

Legend:
[1] = Solubility of drug substance; assay type: physicochemical
[2] = Safety tolerance assessment, adverse events (Example 1); assay type: in vivo, human
Method: 40 asymptomatic healthy patients that are positive for Helicobacter pylori infection were admitted to the trial. The 40 patients were randomly allocated to four groups at a ratio of 1:1:1:1.
Different therapies were administered to the patients of each group according to the schedule below: • Group A: • Compound I capsule 200 mg/time (2 capsules, 100 mg/capsule), twice per day (BID); rabeprazole sodium enteric-coated tablet 20 mg/time (1 tablet, 20 mg/tablet), twice per day (BID) • Group B: • Compound I capsule 400 mg/time (4 capsules, 100 mg/capsule), twice per day (BID); rabeprazole sodium enteric-coated tablet 20 mg/time (1 tablet, 20 mg/tablet), twice per day (BID) • Group C: • Compound I capsule 600 mg/time (6 capsules, 100 mg/capsule), twice per day (BID); rabeprazole sodium enteric-coated tablet 20 mg/time (1 tablet, 20 mg/tablet), twice per day (BID) • Group D: • Compound I capsule 400 mg/time (4 capsules, 100 mg/capsule), twice per day (BID); rabeprazole sodium enteric-coated tablet 20 mg/time (1 tablet, 20 mg/tablet), twice per day (BID); amoxicillin capsule 1 g/time (4 capsules, 0.25 g/capsule), twice per day (BID)
All patients were admitted to the clinical research center 1 day before dosing (D-1 Day), randomly allocated to respective groups and completed examinations for safety and baseline indicators. From day 1 to day 14, respective therapies/drugs were orally administered to the patients within 30 minutes after breakfast and dinner. On day 15, the last dose was administered orally to the patients within 30 minutes after breakfast. During the trial, each patient was dosed for 29 times in total. All patients left the hospital after completing a safety tolerance assessment on day 17 and returned to the clinical research center for urea breath test (UBT) follow-up examination between days 44 and 50 to evaluate the effect of Helicobacter pylori eradication.
The safety tolerance assessment incudes assessment of adverse events (AE), serious adverse events (SAE), drug-related AEs, and AEs leading to withdrawal.
The number and incidence of all adverse events were summarized according to the respective trial group, systemic organ classification and preferred terminology.
By trial group, according to the CTCA 5.0 rating, the list describes the incidence of adverse events in each trial group (occurred in each trial group alone, in 2 groups or 3 groups).
By trial group, the mean, standard deviation, median, minimum and maximum values of vital signs (blood pressure, breathing, pulse and body temperature) and laboratory indicators before and after drug administration were calculated, and when necessary, paired t-test or non-parametric test were used for before-and-after comparison.
SAE and Suspected Unintended Serious Adverse Reactions (SUSAR) were listed separately.

[3] = Group A: Compound I 200 mg BID + rabeprazole sodium 20 mg BID
[4] = Group A: Compound I 200 mg BID + rabeprazole sodium 20 mg BID, N = 10
[5] = Group B: Compound I 400 mg BID + rabeprazole sodium 20 mg BID
[6] = Group B: Compound I 400 mg BID + rabeprazole sodium 20 mg BID, N = 10
[7] = Group C: Compound I 600 mg BID + rabeprazole sodium 20 mg BID
[8] = Group C: Compound I 600 mg BID + rabeprazole sodium 20 mg BID, N = 10
[9] = Group D: Compound I 400 mg BID + rabeprazole sodium 20 mg BID + amoxicillin 1 g BID
[10] = Group D: Compound I 400 mg BID + rabeprazole sodium 20 mg BID + amoxicillin 1 g BID, N = 10

SMILES: CO[C@H]1/C=C/O[C@@]2(C)Oc3c(C)c(O)c4c(c3C2=O)C2=NC3(CCN(CCn5c([N+](=O)[O-])cnc5C)CC3)NC2=C(NC(=O)/C(C)=C\C=C\[C@H](C)[C@H](O)[C@@H](C)[C@@H](O)[C@@H](C)[C@H](OC(C)=O)[C@@H]1C)C4=O [Compound I, 4-Deoxy-3,4-[2-spiro-[1-[2-(2-methyl-5-nitro-imidazol-1-yl)ethyl]-piperidin-4-yl]]-(1H)-imidazo-(2,5-dihydro)rifamycin]
- Solubility of drug substance [1]: low solubility
- Elevated serum creatinine, number of cases [2, 3]: 4 cases
- Incidence of elevated serum creatinine (common AE associated with the combination therapy) [2, 3]: 30%
- Incidence of hyperglycemia (common AE associated with the combination therapy) [2, 3]: 20%
- Drug related TEAE (patients/episodes) [2, 4]: (6/18)
- Incidence of AEs: Drug related TEAE [2, 4]: 60%
- Incidence of AEs: TEAE [2, 4]: 60%
- TEAE (patients/episodes) [2, 4]: (6/18)
- Elevated serum creatinine, number of cases [2, 5]: 1 case
- Grade 3 AEs [2, 5]: 3
- Incidence of elevated hemobilirubin (common AE associated with the combination therapy) [2, 5]: Group B: elevated hemobilirubin (20%), hyperglycemia (20%);
- Incidence of hyperglycemia (common AE associated with the combination therapy) [2, 5]: Group B: elevated hemobilirubin (20%), hyperglycemia (20%);
- Drug related TEAE (patients/episodes) [2, 6]: (7/9)
- Incidence of AEs: Drug related TEAE [2, 6]: 70%
- Incidence of AEs: TEAE [2, 6]: 80%
- TEAE (patients/episodes) [2, 6]: (8/12)
- Common adverse events with incidence of ≥15% associated with the combination therapy [2, 7]: Group C: absent;
- Elevated serum creatinine, number of cases [2, 7]: 2 cases
- Drug related TEAE (patients/episodes) [2, 8]: (5/8)
- Incidence of AEs: Drug related TEAE [2, 8]: 50%
- Incidence of AEs: TEAE [2, 8]: 50%
- TEAE (patients/episodes) [2, 8]: (5/8)
- Elevated serum creatinine, number of cases [2, 9]: 2 cases
- Incidence of elevated alanine aminotransferase (common AE associated with the combination therapy) [2, 9]: Group D: elevated alanine aminotransferase (20%), elevated aspartic acid aminotransferase (20%), hypertriglyceridemia (20%), hyperuricemia (20%), rash (20%), papules (20%).
- Incidence of elevated aspartic acid aminotransferase (common AE associated with the combination therapy) [2, 9]: Group D: elevated alanine aminotransferase (20%), elevated aspartic acid aminotransferase (20%), hypertriglyceridemia (20%), hyperuricemia (20%), rash (20%), papules (20%).
- Incidence of hypertriglyceridemia (common AE associated with the combination therapy) [2, 9]: Group D: elevated alanine aminotransferase (20%), elevated aspartic acid aminotransferase (20%), hypertriglyceridemia (20%), hyperuricemia (20%), rash (20%), papules (20%).
- Incidence of hyperuricemia (common AE associated with the combination therapy) [2, 9]: Group D: elevated alanine aminotransferase (20%), elevated aspartic acid aminotransferase (20%), hypertriglyceridemia (20%), hyperuricemia (20%), rash (20%), papules (20%).
- Incidence of papules (common AE associated with the combination therapy) [2, 9]: Group D: elevated alanine aminotransferase (20%), elevated aspartic acid aminotransferase (20%), hypertriglyceridemia (20%), hyperuricemia (20%), rash (20%), papules (20%).
- Incidence of rash (common AE associated with the combination therapy) [2, 9]: Group D: elevated alanine aminotransferase (20%), elevated aspartic acid aminotransferase (20%), hypertriglyceridemia (20%), hyperuricemia (20%), rash (20%), papules (20%).
- Drug related TEAE (patients/episodes) [2, 10]: (7/17)
- Incidence of AEs: Drug related TEAE [2, 10]: 70%
- Incidence of AEs: TEAE [2, 10]: 80%
- TEAE (patients/episodes) [2, 10]: (8/19)
- Decrease in renal creatinine clearance, incidence rate ([2]; Total, Groups A-D): 7.5%
- Drug-related AEs of grade 1 ([2]; Total, Groups A-D): 45
- Drug-related AEs of grade 2 ([2]; Total, Groups A-D): 6 cases
- Drug-related skin abnormalities (rash, papules, itching), number of cases ([2]; Total, Groups A-D): 8 cases
- Elevated serum creatinine, incidence rate ([2]; Total, Groups A-D): 15%
- Elevated serum creatinine, number of cases ([2]; Total, Groups A-D): 9 cases
- Grade 1 adverse events (CTC AE 5.0), number of cases ([2]; Total, Groups A-D): 46 cases
- Grade 2 adverse events (CTC AE 5.0), number of cases ([2]; Total, Groups A-D): 10 cases
- Hyperglycemia (unexpected adverse reaction), incidence ([2]; Total, Groups A-D): 12.5%
- Skin abnormalities, number of cases ([2]; Total, Groups A-D): 10 cases
- Unexpected adverse reactions, incidence ([2]; Total, Groups A-D): 15.0%
- Drug related TEAE (patients/episodes) ([2]; Total, Groups A-D, N = 40): (25/52)
- Incidence of AEs: Drug related TEAE ([2]; Total, Groups A-D, N = 40): 62.5%
- Incidence of AEs: TEAE ([2]; Total, Groups A-D, N = 40): 67.5%
- TEAE (patients/episodes) ([2]; Total, Groups A-D, N = 40): (27/57)
- Hyperglycemia (unexpected adverse reaction), number of cases ([2]; Total, Groups A-D, grade 1): 6 cases
- Unexpected adverse reactions, number of cases ([2]; Total, Groups A-D, grade 1): 7 cases
- Elevated transaminases, number of cases ([2]; Total, Groups A-D, severity all grade 1): 7 cases
- Safety and tolerability of the combination therapy ([2]; administered continuously for 14 days in asymptomatic healthy people with positive Helicobacter pylori infection): good safety and tolerability characteristics
- Serious adverse events (SAE) ([2]; entire trial, Groups A-D): no SAE
